Patent publication US20240208963A1, “CRYSTALLINE MELANOCORTIN SUBTYPE-2 RECEPTOR (MC2R) ANTAGONIST” (Crinetics Pharmaceuticals, Inc., priority 2022, published 2024)
Read-outs that look alike come from different tables or passages of the source.

How the values were obtained:
[1] = Solubility in simulated fluids and water; format: physicochemical; conditions: 37° C.
Experimental: Calibration samples for solubility in simulated fluids were prepared with freebase Compound I.
Solubility in simulated fluids were studied with the mandelate and maleate solids. The simulated fluids FaSSIF (fasted-state intestinal), FaSSGF (fasted-state gastric), and FeSSIF (fed-state intestinal) were removed from the refrigerator, warmed to room temperature, and the pH of each was measured. Between 1.9 and 2.0 mg of each salt was weighed into four vials and 1 mL of each fluid was added, including water. Stir bars (10 mm) were added to the vials and the vials were stirred at 37° C. After 30 mi (mandelate samples) or 1 h (maleate samples), the pH of each solution was measured, then 400 μL of each was removed and syringe filtered with 0.45 µm syringe filters. Approximately 300 μL of the recovered filtrate was diluted 5× with diluent and injected for HPLC analysis. The remainder of the samples in the vials were allowed to stir overnight. After 24 h stirring at 37° C., samples were filtered and diluted as before, and injected for analysis.

[2] = Salt screening XRPD stages: drying and overnight humidity exposure; conditions: >95% relative humidity overnight
Experimental: XRPD analysis is typically done in three stages: 1) Wet: XRPD of the wet cake is done for all samples whenever solids appropriate for sampling were observed. 2) Dry: Unique solids are then left on XRPD plates and dried under vacuum at 50° C. for at least 3 h. XRPD of unique dry solids are then collected. 3) Humid: Solids are then exposed to >95% relative humidity overnight and XRPD on resulting solids is collected. The humid environment is generated by placing a beaker of saturated potassium sulfate in water in a sealed container. This procedure is not carried out for any amorphous solids obtained. All XRPD patterns are compared to counter ion XRPD patterns and known free molecule patterns.
A qualitive humidity exposure test was performed by exposing approximately 10 mg of the maleate to 80% RH overnight.

[3] = Dynamic vapor sorption (DVS); format: physicochemical
Experimental: DVS was performed using a DVS Intrinsic 1. The sample (20-25 mg) was loaded into a sample pan, suspended from a microbalance and exposed to a humidified stream of nitrogen gas. The sample was held for a minimum of 5 min at each level and only progressed to the next humidity level if there was <0.002% change in weight between measurements (interval: 60 s) or 240 min had elapsed. The following program was used: • 1. Equilibration at 50% RH • 2. 50% to 2%. (50%, 40%, 30%, 20%, 10%, and 2%) • 3. 2% to 95% (2%, 10%, 20%, 30%, 40%, 50%, 60%, 70%, 80%, 90%, and 95%) • 4. 95% to 2% (95%, 80%, 70%, 60%, 50%, 40%, 30%, 20%, 10%, and 2%) • 5. 2% to 50% (2%, 10%, 20%, 30%, 40%, and 50%)

[4] = Form stability at ambient conditions for one week (XRPD); format: physicochemical; conditions: listed as Pattern C, maleate
Text: Some of the samples generated in the antisolvent crystallization experiments were mixtures of Pattern B, Pattern C, and Pattern D. These samples were left at ambient conditions for one week, then analyzed again by XRPD.
Pure Pattern B was generated in the antisolvent crystallization with MIBK and heptane. […] The solids were scraped from the XRPD plate and used for simultaneous TGA/DSC analysis. […] After the solids required for the TGA/DSC analysis were transferred to the pan, the remainder of the solids were re-pressed to the XRPD sample plate and analyzed again.

[5] = Solubility of solid state forms in solvents (gravimetric or solvent addition); format: physicochemical; conditions: for solubility: thermodynamic from solid, read-out: Solubility
Experimental: The solubility of certain solid state forms of Compound I was determined in various solvents by either gravimetric solubility or solvent addition.
About 25 mg of compound was weighed into vials. Approximately 5 vol. (0.125 mL) of solvent was added to the solids and the mixtures stirred at the designated temperature (RT or 50° C.). Solutions were noted and an additional 0.125 mL of solvent was added to the slurries. […] If a thicker slurry was noted, 0.25 mL of solvent was added (total volume 0.5 mL). If a thick slurry was again noted, an additional 0.25 mL of solvent was added (total volume 0.75 mL). After stirring for 2 days, the slurries were centrifuged, the supernatant was collected into preweighed vials, and the solvent evaporated at 50° C. (ambient pressure) without stirring. The vials containing the solid residues were dried in a vacuum oven at 50 C, 10^−2-10^−1 Torr, for 3 h before weighing again to determine the mass of solid that was dissolved in the supernatant (i.e. mg solid/mL solvent).
About 20 mg of compound was weighed into vials. Solvent was added in aliquots and stirred at the designated temperature until complete dissolution was observed. This measurement gave a solubility range.

[6] = Stability of crystalline forms at 40° C. and 75% relative humidity (XRPD, HPLC purity); conditions: for Change by XRPD after storage / Degradation by HPLC purity analysis after storage: 40° C., 75% relative humidity
Experimental: Approximately 10 mg of the Crystalline Pattern D of Compound I Maleate, 20 mg of the Crystalline Pattern C of Compound I Maleate, and 10 mg of the Crystalline Pattern E of Compound I Mandelate were weighed into open 4 mL vials that were placed into a 20 mL vial containing a saturated NaCl solution. The vial was sealed and kept at 40° C. for 7 days, creating an atmosphere at 75% relative humidity in the system. After 7 days, the materials were sampled and plated for XRPD analysis.
The stability test was repeated on Patterns C and D of Compound I Maleate for 11 days.

## CCOc1ccccc1-c1ccc(N2CCN(C(=O)C3(C(F)(F)F)CCC3)C[C@H]2CC)c(C(=O)N[C@@H]2CN3CCC2CC3)n1.O=C(O)/C=C\C(=O)O [Pattern C Maleate, N-[(3S)-1-azabicyclo[2.2.2]octan-3-yl]-6-(2-ethoxyphenyl)-3-[(2R)-2-ethyl-4-[1-(trifluoromethyl)-cyclobutanecarbonyl]piperazin-1-yl]pyridine-2-carboxamide maleate]
[1]; FaSSGF (fasted-state simulated gastric fluid), pH 1.49, fassgf or other biorelevant, thermodynamic from solid, FaSSGF, 1 h
  solubility at 1 h: < 2.5 mg/mL
[1]; FaSSGF (fasted-state simulated gastric fluid), pH 1.49, fassgf or other biorelevant, thermodynamic from solid, FaSSGF, 24 h
  solubility at 24 h: > 2.5 mg/mL
[1]; FaSSGF (initial pH 1.49), 1 h
  Sample pH: 4.66
[1]; FaSSGF (initial pH 1.49), 24 h
  Sample pH: 5.08
[1]; FaSSIF (fasted-state simulated intestinal fluid), pH 6.35, thermodynamic from solid, FaSSIF, 24 h
  solubility at 24 h: 1.41 mg/mL
[1]; FaSSIF (fasted-state simulated intestinal fluid), thermodynamic from solid, FaSSIF, 1 h
  solubility at 1 h: 1.24 mg/mL
[1]; FaSSIF (initial pH 6.35), 1 h
  Sample pH: 6.23
[1]; FaSSIF (initial pH 6.35), 24 h
  Sample pH: 6.98
[1]; FaSSIF, after 24 h
  Solids recovered from the solubility experiment (appearance, XRPD): oily and appeared as amorphous
[1]; FeSSIF (fed-state simulated intestinal fluid), pH 4.83, thermodynamic from solid, FeSSIF, 1 h
  solubility at 1 h: > 2.5 mg/mL
[1]; FeSSIF (fed-state simulated intestinal fluid), pH 4.83, thermodynamic from solid, FeSSIF, 24 h
  solubility at 24 h: > 2.5 mg/mL
[1]; FeSSIF (initial pH 4.83), 1 h
  Sample pH: 1.50
[1]; FeSSIF (initial pH 4.83), 24 h
  Sample pH: 1.89
[1]; thermodynamic from solid, water, 1 h
  solubility at 1 h: > 2.5 mg/mL
[1]; thermodynamic from solid, water, 24 h
  solubility at 24 h: > 2.5 mg/mL
[1]; water, 1 h
  Sample pH: ~6.35
[1]; water, 24 h
  Sample pH: 5.50
[2]
  Stability after humidity exposure (XRPD, deliquescence): stable with no observed deliquescence
[3]; DVS
  Hygroscopicity (in words): moderately hygroscopic
[3]; after DVS from 2 to 95% RH
  Change by XRPD following the DVS analysis: Slight changes
[3]; from 2 to 95% relative humidity
  Reversible mass gain (DVS): 9.18 wt. %
[3]; high humidity
  Behaviour at high humidity: began to convert to amorphous
[4]
  Form conversion by XRPD at ambient conditions: no observable conversion
[5]; MeOH, EtOH, acetone, THF, ACN, MEK, DMSO, and water containing systems at 8:2 vol. water:organic
  Solubility (in words): freely soluble
[5]; aqueous with cosolvent or surfactant or cyclodextrin, ACN:water (2:8 vol.), RT
  solubility: > 200 mg/mL
[5]; aqueous with cosolvent or surfactant or cyclodextrin, IPA:water (2:8 vol.), RT
  solubility: > 200 mg/mL
[5]; aqueous with cosolvent or surfactant or cyclodextrin, acetone:water (2:8 vol.), RT
  solubility: > 200 mg/mL
[5]; organic solvent or mixture, ACN, RT
  solubility: > 200 mg/mL
[5]; organic solvent or mixture, DMSO, RT
  solubility: > 200 mg/mL
[5]; organic solvent or mixture, EtOAc, 50° C.
  solubility: 34 mg/mL
[5]; organic solvent or mixture, EtOAc, RT
  solubility: 21 mg/mL
[5]; organic solvent or mixture, EtOH, RT
  solubility: > 200 mg/mL
[5]; organic solvent or mixture, IPA, 50° C.
  solubility: > 500 mg/mL
[5]; organic solvent or mixture, IPA, RT
  solubility: > 200 mg/mL
[5]; organic solvent or mixture, IPA:MtBE (1:1 vol.), 50° C.
  solubility: 36 to 43 mg/mL
[5]; organic solvent or mixture, IPA:heptane (1:1 vol.), 50° C.
  solubility: 16 to 19 mg/mL
[5]; organic solvent or mixture, IPAc, 50° C.
  solubility: 13 mg/mL
[5]; organic solvent or mixture, IPAc, RT
  solubility: 8 mg/mL
[5]; organic solvent or mixture, MEK, RT
  solubility: > 200 mg/mL
[5]; organic solvent or mixture, MIBK, 50° C.
  solubility: 71 mg/mL
[5]; organic solvent or mixture, MIBK, RT
  solubility: 49 mg/mL
[5]; organic solvent or mixture, MeOAc, 50° C.
  solubility: > 500 mg/mL
[5]; organic solvent or mixture, MeOAc, RT
  solubility: > 200 mg/mL
[5]; organic solvent or mixture, MeOAc:IPAc (1:1 vol.), 50° C.
  solubility: 37 to 45 mg/mL
[5]; organic solvent or mixture, MeOH, RT
  solubility: > 200 mg/mL
[5]; organic solvent or mixture, MtBE, 50° C.
  solubility: 4 mg/mL
[5]; organic solvent or mixture, MtBE, RT
  solubility: 4 mg/mL
[5]; organic solvent or mixture, THF, RT
  solubility: > 200 mg/mL
[5]; organic solvent or mixture, acetone, RT
  solubility: > 200 mg/mL
[5]; organic solvent or mixture, acetone:heptane (1:1 vol.), 50° C.
  solubility: 31 to 37 mg/mL
[5]; organic solvent or mixture, chloroform, RT
  solubility: > 200 mg/mL
[5]; organic solvent or mixture, cyclohexane, 50° C.
  solubility: 3 mg/mL
[5]; organic solvent or mixture, cyclohexane, RT
  solubility: < 3 mg/mL
[5]; organic solvent or mixture, n-heptane, 50° C.
  solubility: 3 mg/mL
[5]; organic solvent or mixture, n-heptane, RT
  solubility: < 3 mg/mL
[5]; organic solvent or mixture, toluene, 50° C.
  solubility: 7 mg/mL
[5]; organic solvent or mixture, toluene, RT
  solubility: < 3 mg/mL
[5]; water and 95:5 vol. water:organic systems
  Behaviour in solvent (in words): Gels/gums were generated
[6]; 7 days
  Change by XRPD after storage: No visible change
  Degradation by HPLC purity analysis after storage: no degradation
[6]; 11 days
  Change by XRPD after storage: No visible change
  Degradation by HPLC purity analysis after storage: no degradation
[6]; over a week at 40° C. and 75% RH
  Stability on storage (in words): stable
